Source: patent US20150051220A1, “COMPOUNDS FOR USE IN THERAPY” (GLUCOX BIOTECH AB, priority 2012, published 2015)

Assay: Stroke model, transient middle cerebral artery occlusion (tMCAO)
Format: in vivo
Conditions: mice, 60 min tMCAO, 3.2 mg/kg i.p. at 2 h and 12 h, sacrificed 24 h after tMCAO, vs vehicle
Description: FIG. 4 is a bar chart showing the infarct volume (mm3) in a mice model of stroke, where mice were treated with the inventive compound ethyl 2-(2-(4-(furan-2-carbonyl)piperazin-1-yl)acetamido)-5,6-dihydro-4H-cyclopenta[b]thiophene-3-carboxylate (“INVENTION”) or with vehicle (“CONTROL”).
The stroke disease model used in this example was mice that were subjected to transient middle cerebral artery occlusion (tMCAO) to mimic the mechanisms of ischemic stroke. Male mice weighing 20 g, was subjected to a 60 min of tMCAO as previously described (Elevers M et al., Sci. Signal 3: ra1, 2010; Bena_Erro A et al., Sci Signal 2: ra67). Sham-operated mice were used as control.
For the i.p. administrations performed in this study, 3.5 mg of ethyl 2-(2-(4-(furan-2-carbonyl)piperazin-1-yl)acetamido)-5,6-dihydro-4H-cyclopenta[b]thiophene-3-carboxylate was dissolved in 1 ml of DMSO and 5 ml of 20% Cremophor ELP in PBS then followed by additional PBS. The administered dose used in the experiment was 3.2 mg/kg and in the controls the same injection volume of vehicle was used. Administration was made at 2 h and 12 h for each mouse.
To determine infarct size and effect of Nox4 inhibitor, mice were sacrificed 24 h after tCMCAO and lesion volumes of the brain were determined according to a previously described methodology (Kleinschnitz et al, vide supra).

Structure (SMILES): CCOC(=O)c1c(NC(=O)CN2CCN(C(=O)c3ccco3)CC2)sc2c1CCC2 [the inventive compound, ethyl 2-(2-(4-(furan-2-carbonyl)piperazin-1-yl)acetamido)-5,6-dihydro-4H-cyclopenta[b]thiophene-3-carboxylate]
- lesion volume of the brain (infarct volume): significantly lower lesion volume of the brain
